Test results taken from patent US11931322B2, “Solubilizate with curcumin and optionally at least one other active substance” (priority 2017, dated 2024).

Tests used:
Assay type in all cases: in vivo, Wistar rats
[1] = test system: total antioxidant capacity (TAC); experiment: Total antioxidant capacity (TAC) in the serum of arthritic rats; settings: for TAC: serum of arthritic rats, n=8, mean ± SEM
Description: (§1) Prof. Dr. […] from the University of Cairo, Faculty of Pharmacy at the Institute for Pharmacology, performed studies on the anti-inflammatory effect of curcumin and combinations of curcumin with Boswellia or xanthohumol, in each case in the native form and in the solubilized form according to the disclosure. Anti-inflammatory markers and antioxidant capacity were determined. Female Wistar rats with a body weight between 150 and 200 g were exposed to adjuvant induced arthritis according to Pearson et al. (1956). At day 0, the animals were administered 0.1 ml of Freund's Adjuvant (FCA) in the right hind paw, by subplantar injection. The animals were randomly divided into 12 groups of 8 animals each. All extracts or solubilizates were administered orally once daily from day 0 to day 21 following the vaccination with the adjuvant. After day 21, the animals were killed and serum samples were prepared and stored at -80° C. Measurements were made of myeloperoxidase (MPO), C-reactive protein (CRP), total antioxidant capacity (TAC), and thiobarbituratic acid reactive substances (TBARS). Oxidative stress is one of the major factors contributing to joint destruction in rheumatoid arthritis (RA). An increase in the production of so-called “reactive oxygen species (ROS)” leads to a reduced supply of endogenous antioxidants and ultimately results in the destruction of cells. The neutrophil granulocytes released in the rheumatoid joint produce free oxygen radicals which cause increased formation of lipid peroxides manifesting in an increase in serum TBARS. Therefore, an increase in antioxidant status represented by an increase in TAC can be used as an indication of protection against the development of degenerative inflammatory processes. There is an inverse relationship between the levels of TAC and TBARS, a high level of antioxidant capacity TAC corresponds to a low TBARS concentration. The table contains data on the effect of curcumin and Boswellia in native and in solubilized form, administered either alone or in combination with diclofenac in a dose of 3 mg per kg body weight once daily for 21 days, on the antioxidant capacity TAC and the thiobarbituric acid reactive substances TBARS in the serum of arthritic rats (n=8). Indicated are mean values±standard error of the mean (SEM).

[2] = test system: thiobarbituric acid reactive substances (TBARS); experiment: Thiobarbituric acid reactive substances (TBARS) in the serum of arthritic rats; settings: for TBARS: serum of arthritic rats, n=8, mean ± SEM
Description: as §1

[3] = test system: C-reactive protein (CRP); experiment: Serum C-reactive protein (CRP) in adjuvant-induced arthritic rats; settings: 5 and 10 mg/kg, FIG. 1a
Description: (§2) Prof. Dr. […] from the University of Cairo, Faculty of Pharmacy at the Institute for Pharmacology, performed studies on the anti-inflammatory effect of curcumin and combinations of curcumin with Boswellia or xanthohumol, in each case in the native form and in the solubilized form according to the disclosure. Anti-inflammatory markers and antioxidant capacity were determined. Female Wistar rats with a body weight between 150 and 200 g were exposed to adjuvant induced arthritis according to Pearson et al. (1956). At day 0, the animals were administered 0.1 ml of Freund's Adjuvant (FCA) in the right hind paw, by subplantar injection. The animals were randomly divided into 12 groups of 8 animals each. Group 1 was the control group. Group 2 received diclofenac as a reference drug in a dose of 3 mg/kg body weight. Group 3 received native curcumin in a dose of 5 mg/kg body weight. Group 4 received curcumin solubilized according to the disclosure in a dose of 5 mg/kg body weight. Group 5 received native curcumin in a dose of 10 mg/kg body weight, and Group 6 received curcumin solubilized in the same dose. Group 7 received native xanthohumol in a dose of 5 mg/kg body weight, and Group 8 received solubilized xanthohumol in the same dose. Group 9 received a mixture of native curcumin in a dose of 5 mg/kg body weight and native Boswellia extract in a dose of 10 mg/kg body weight. […]

[4] = test system: myeloperoxidase (MPO); experiment: Serum myeloperoxidase (MPO) in adjuvant-induced arthritic rats; settings: both dosages (5 and 10 mg/kg), FIG. 2
Description: as §2

[5] = 10 mg/kg once daily for 21 days
[6] = arthritic rats, both dosages considered

Structure (SMILES) | TAC ([1]; 3 mg/kg once daily for 21 days) [nmol/µL] | TBARS ([2]; 3 mg/kg once daily for 21 days) [nmol/L] | TAC ([1]; 5 mg/kg once daily for 21 days) [nmol/µL] | TAC [1, 5] [nmol/µL] | effect on TAC (in words) [1, 6] | TBARS ([2]; 5 mg/kg once daily for 21 days) [nmol/L] | TBARS [2, 5] [nmol/L] | effect on the TBARS level (in words) [2, 6] | effect on rat serum CRP levels (in words) [3] | effect on MPO concentration (in words) [4]
O=C(O)Cc1ccccc1Nc1c(Cl)cccc1Cl [Diclofenac, diclofenac] | 82.08 ± 2.96 | 7.93 ± 0.84 |  |  |  |  |  |  |  | 
COc1cc(/C=C/C(=O)CC(=O)/C=C/c2ccc(O)c(OC)c2)ccc1O [Native curcumin, curcumin] |  |  | 60.31 ± 3.25 | 68.41 ± 1.09 | no significant effect | 11.64 ± 0.39 | 13.18 ± 0.46 | no significant effect | inhibited rat serum CRP levels in a dose-dependent manner | no effect on the MPO levels
